# Laboratory results taken from US20240024365A1, “POTENTIATION OF BONE MARROW CELL ACTIVITY BY COADMINISTRATION WITH OXYTOCIN” (CREATIVE MEDICAL TECHNOLOGIES, INC., priority 2022, published 2024).
# Key:
# [1] = system: experimental autoimmune encephalomyelitis (EAE); experiment: SJL/J model of experimental autoimmune encephalomyelitis (EAE), syngeneic bone marrow cells cultured in ProCell; assay type: in vivo
# Experimental: (§1) Methods: Immune modulatory activity of ProCell (oxytocin) was assessed by treatment of bone marrow mononuclear cells with ProCell (oxytocin) and subsequently assayed for proliferative ability and cytokine in response to CD3/CD28 stimulation. The concentration and incubation time of ProCell (oxytocin) identified for maximal immune modulatory effect was used to treat syngeneic bone marrow cells prior to implantation in the SJL/J model of EAE. Cell transplant experiments involving transfer of mesenchymal stem cells (CD105), monocytes (CD14), T cells (CD3) and B cells (CD20) where performed to identify the cellular population responsible for disease protective effect.
# [2] = system: allogeneic peripheral blood mononuclear cells (mixed lymphocyte reaction); experiment: Mixed lymphocyte reaction (MLR) with ProCell (oxytocin) treated cord blood CD14 monocytes; assay type: cell-based, human; details: for Proliferation in MLR: ProCell treated CD14 monocytes added to MLR, tritiated thymidine; for Treg (FoxP3) generation in MLR: flow cytometry
# Experimental: Methods: UCBMNC where treated with ProCell (oxytocin) and monocytic populations where extracted by CD14 Magnetic Activated Cell Separation (MACS). Immune modulatory activity of isolated cells was examined by coculture with allogeneic lymphocytes, as well as added to ongoing mixed lymphocyte reaction (MLR). Proliferation and cytokine production was assessed. Furthermore generation of T regulatory cells was examined by flow cytometry for FoxP3 and ability to suppress T cell proliferation stimulated by CD3/CD28.
# Cryopreserved human umbilical cord mononuclear cells (UB-MNCs) were obtained from All Cells, LLC. Immediately prior to the experiment the UBMNC s were thawed in a 37° C. water bath for about one minute and then washed twice in 10 ml PBS with 100 μl DNase (Sigma #D4527-40KU, 1 mg/ml). The number of viable cells was determined using the trypan blue exclusion method. Cell viability generally ranged from 80% to 90%.
# Using magnetic antibody cell sorting (MACS), UB-MNCs were selected CD14+ monocytes, the MNC were centrifuged at 1000 rpm×10 minutes, the supernatant aspirated and the cells resuspended in 80 μl of buffer per […] and incubated at 4° C. for 15 min. Antibody conjugated paramagnetic microbeads CD14 labeled beads (cat #130-050-201, Miltenyi Biotechwere used to enrich for monocytes. After incubation, the cells were washed with buffer and centrifuged at 1000 rpm for 10 min. The cells were resuspended in 500 μl of buffer, then passed through a magnetic column that trapped the paramagnetic beads and the cells they were attached to (AutoMacs Pro). The magnetic field was disengaged and the cells collected.
# CD14 cells were cultured in ProCell (oxytocin) at various concentrations in Opti-Mem media with 10% fetal calf serum for 1 hour at 37 Celsius. Cells where subsequently washed in Phosphate Buffered Saline and plated in vitro. Assessment of Treg generation was performed in mixed lymphocyte reaction with allogeneic peripheral blood mononuclear cells. The culture lasted either 48 or 72 hours and various concentrations of ProCell (oxytocin) treated cord blood CD14 expressing cells where added to the responding PBMC. Evaluation of proliferation was performed using the tritiated thymidine method, and cytokine production was measured using ELISA.
# Additionally, the stimulation of FoxP3 expression was performed by flow cytometry using fixation and permeabiliization method.
# hindlimb ischemia = experiment: Hindlimb ischemia assay (femoral artery ligation), limb survival; assay type: in vivo, mice
# Experimental: Methods: ProCell(oxytocin) was assessed for ability to stimulate human umbilical vein endothelial cell (HUVEC) proliferation in vitro. Selected compounds where tested for ability to stimulate colony and tube formation. In vivo angiogenic activity was tested by administration of bone marrow mononuclear cells alone, or ProCell-treated bone marrow mononuclear cells in the hindlimb ischemia assay. Bone marrow mononuclear cells where obtained from syngeneic mice. Cells where administered at a concentration of 1 million cells per leg intramuscularly on days 0, 2, and 4, Oxytocin was injected in the same area on the same days at a concentration of 0.1 IU per mouse. Injury was induced by ligation of the femoral artery and neurotrophic injury was induced. Limb survival was quantified.
# [3] = system: CD3/CD28 stimulated T cell proliferation; experiment: CD3/CD28 stimulation of ProCell (oxytocin) treated bone marrow mononuclear cells: proliferation and cytokines; assay type: cell-based
# Experimental: as §1
# [4] = system: bone marrow mononuclear cells / endothelial progenitors; experiment: Endothelial colony and tube formation of bone marrow cells; assay type: cell-based, human; details: for Endothelial colony formation: bone marrow cells incubated in ProCell, semi-solid media with endothelial differentiation cocktail
# Experimental: (§2) Methods: ProCell(oxytocin) was assessed for ability to stimulate human umbilical vein endothelial cell (HUVEC) proliferation in vitro. Selected compounds where tested for ability to stimulate colony and tube formation. In vivo angiogenic activity was tested by administration of bone marrow mononuclear cells alone, or ProCell-treated bone marrow mononuclear cells in the hindlimb ischemia assay.
# Bone marrow was aspirated from patients 3 patients 18-25 years old (Young Patients) and 3 patients 65-80 years old (Old Patients). The cells were either incubated in saline for 30 minutes or incubated in ProCell(oxytocin). Bone marrow cells were evaluated. Evaluation of colony formation was performed by plating mononuclear cells in semi-solid media containing endothelial differentiation cocktail. Number of colonies where counted.
# critical limb ischemia = experiment: Pilot study in patients with critical limb ischemia; assay type: in vivo, human patients
# Experimental: Three patients suffering from critical limb ischemia were recruited. Patients matched the following inclusion criteria. a. Unreconstructable arterial disease was determined by a vascular surgeon who is not participating in the study. Unreconstructable arterial disease is defined by atherocclusive lesions within the arterial tree of the extremity that due to extent or morphology are not amenable to surgical bypass or PTCA and stenting. b. Objective evidence of severe peripheral arterial disease includes an ankle brachial index (ABI) of less than 0.55, and/or a resting toe brachial index (TBI) of […]. c. Patients must be competent to give consent. d. No history of malignant disease except for nonmelanoma skin cancer, no suspicious findings on chest x-ray, mammography (women over age 35), Papanicolaou smear (women over age 40), a normal fecal occult blood (over age 50) and a normal prostate specific antigen (men over age 45). Patients were injected with 10(8) bone-marrow mononuclear cells/aspirate, and administration of ProCell(oxytocin) was performed concurrently. Injections were performed using 10 million cells per injection, with 10 injections locally at the area of failed perfusion in a 10 cm×10 cm area in the gastrocnemius muscle. Ankle Brachial index was measured by comparing the ankle and brachial pressure.
# [5] = system: human umbilical vein endothelial cell (HUVEC); experiment: HUVEC proliferation in vitro; assay type: cell-based; details: compared among 73 factors tested
# Experimental: as §2
# [6] = ProCell treated monocytes, ELISA
# [7] = bone marrow cells with concurrent ProCell, patients
smiles,measurement,setting,value
"CC[C@H](C)[C@@H]1NC(=O)[C@H](Cc2ccc(O)cc2)NC(=O)[C@@H](N)CSSC[C@@H](C(=O)N2CCC[C@H]2C(=O)N[C@@H](CC(C)C)C(=O)NCC(N)=O)NC(=O)[C@H](CC(N)=O)NC(=O)[C@H](CCC(N)=O)NC1=O [ProCell, Oxytocin]",Relapse of EAE,[1]; animals treated with ProCell cultured cells,accelerated reduction of relapse
same,Inhibition of EAE,[1]; animals treated with ProCell cultured syngeneic bone marrow cells,Dose dependent inhibition of EAE
same,FoxP3 expressing cells,[1]; correlated with disease inhibition,increased FoxP3 expressing cells
same,Proliferation in MLR,[2],suppress proliferation
same,Proliferation in MLR,[2]; listed as ProCell (oxytocin),actively inhibited ongoing MLR
same,TGF-beta in MLR,[2]; ProCell treated monocytes,augmentation
same,IFN-gamma in MLR,[2]; [6],suppress IFN-Gamma
same,IL-10 in MLR,[2]; [6],enhances IL-10
same,IL-10 in MLR,"[2]; ProCell treated monocytes, ELISA, listed as ProCell (oxytocin)",augmentation
same,Treg (FoxP3) generation in MLR,[2]; ProCell treated monocytes,enhances Treg (FoxP3)
same,Treg (FoxP3) generation in MLR,"[2]; ProCell treated monocytes, listed as ProCell (oxytocin)",in vitro generation of active T regulatory cells was observed
same,Stimulation of allogeneic T cell proliferation,[2]; coculture of ProCell cultured CD14 cells with allogeneic lymphocytes,did not stimulate allogeneic T cell proliferation
same,Limb loss,hindlimb ischemia; ProCell incubated bone marrow cells,prevents limb loss
same,Limb loss,"hindlimb ischemia; ProCell incubated bone marrow cells, listed as ProCell(oxytocin)",prevent limb loss
same,Neoangiogenesis in hindlimb ischemia model,hindlimb ischemia; bone marrow mononuclear cells/aspirate incubated with ProCell,enhanced ability to stimulate neoangiogenesis
same,Limb loss,hindlimb ischemia; localized separate intramuscular administration of ProCell and bone marrow mononuclear cells/aspirate,prevention of limb loss
same,IFN-gamma production,[3]; CD3/CD28 stimulation,inhibition
same,IL-10 production,[3]; CD3/CD28 stimulation,upregulation
same,IL-12 production,[3]; CD3/CD28 stimulation,inhibition
same,TGF-beta production,[3]; CD3/CD28 stimulation,upregulation
same,CD3/CD28 stimulated T cell proliferation,[3]; bone marrow mononuclear cells treated with ProCell,inhibitory effect
same,Endothelial colony formation,[4],increases endothelial colony formation
same,Endothelial colony formation,[4]; listed as ProCell(oxytocin),potent induction
same,Tube formation,[4]; endothelial progenitors and non-purified bone marrow mononuclear cells,potent induction
same,Amputation during the study period,critical limb ischemia; 10(8) bone-marrow mononuclear cells/aspirate with concurrent ProCell,No patients reported amputation
same,"Critical limb ischemia, before and after photographs",critical limb ischemia; bone marrow cells with ProCell,improving critical limb ischemia
same,Ankle brachial index,critical limb ischemia; [7],improving
same,Ankle pressure,critical limb ischemia; [7],improving
same,Stimulation of HUVEC proliferation,[5],highest stimulatory activity
